Test results taken from patent US12503446B2, “Bromodomain inhibitors” (FORSCHUNGSZENTRUM JÜLICH GMBH, priority 2019, dated 2025).

Assays:
[1] = system: HEL cells; assay: Proliferation assay, cell count after trypan blue staining, HEL; assay type: cell-based; conditions: 1 or 5 μM, 24-72 h, by comparison with PFI-1
Method: (§1) Cell count and viability was determined after trypan blue staining. The appropriate concentrations of the inhibitors per ml of medium were added, or the correspondingly highest volume of DMSO was added as control group.
The cell growth described here is referred to as proliferation, and gives information as to the cell divisions that proceeded in the specified period.

[2] = system: HEL cells; assay: Cell cycle analysis (propidium iodide, flow cytometry), HEL; assay type: cell-based; conditions: compared to PFI-1
Method: The influence of the inhibitors used on the cell cycle was examined by means of propidium iodide staining of the fixed cells. For this purpose, the cells were fixed with 95% ethanol at −20° C., RNA was destroyed by RNase (100 μg/ml) at 37° C. for […], and the DNA was stained by means of propidium iodide (50 μg/ml). Using a flow cytometer (Gallios (Beckman Coulter, Krefeld, Germany)), the cell cycle phases were analysed, and the data were evaluated by means of FlowJo Software (Version 10).
During the proliferation, the cells go through different stages of the cell cycle in which genomic DNA is replicated, the cell nucleus is broken down and cell division takes place, resulting in two identical cells.

[3] = system: proteins from the BET family; assay: Thermal shift assay (BromoMELT assay), BET family; assay type: binding; conditions: 10 μM, duplicates, versus DMSO control; apart from BRDT-2
Method: (§2) The experiment was conducted in duplicates at a concentration of 10 μM.

[4] = system: Molm-14 cells; assay: Viability from trypan blue staining, Molm-14; assay type: cell-based; conditions: 5 μM, compared to PFI-1
Method: as §1
During the study of cell proliferation, the viability of the cell lines was likewise determined from the trypan blue staining. Trypan blue cannot penetrate into living cells.

[5] = system: PARP1 cleavage in HEL cells; assay: PARP1 cleavage Western blot (apoptosis), HEL; assay type: cell-based; conditions: 5 μM
Method: Cell lysates were produced with RIPA lysis buffer (50 mM Tris pH 7.4, 150 mM sodium chloride, 1 mM EDTA, 1% Triton-X, 15% glycerol, 0.5% sodium deoxycholate, and protease/phosphatase inhibitors). Protein concentrations were determined by the Bradford Protein Assay using a Nanodrop Spectrometer (NanoDrop 2000/2000c system, Thermo Fisher Scientific, Darmstadt, Germany) at 595 nm. To 25 μg of protein lysates was added 4xLämmli sample buffer, followed by denaturing at 65° C. for 5 min and introduction into the SDS-Page. The proteins were transferred by the wet blot method in Towbin buffer (3 g Tris, 14.4 g glycine, 5% methanol per litre of ddH2O) to a PVDF membrane at 100 mA overnight. The membrane was blocked with 10% BSA in TBS-T buffer (20 mM Tris-HCl, pH 7.6, 137 mM NaCl, 0.05% IGEPAL). The primary antibodies were incubated at 4° C. overnight, and the HRP-labelled antibodies at room temperature with the membrane for […]. The proteins were detected by means of PCA-ECL solution using a chemiluminescence detector (Fusion SL, PeqLab).
In addition, a possible induction of apoptosis in the cell lines described by compound MF2 was examined. […] Protein concentrations were determined with the Bradford protein assay using a Nanodrop Spectrometer at 595 nm. […] The proteins were detected by means of PCA-ECL solution using a chemiluminescence detector (Fusion SL, PeqLab). […]

[6] = system: PBMC or CD34+ cells from healthy donors; assay: CFU assay, healthy controls; assay type: cell-based, human
Method: With the aid of the CFU assay, it is possible to determine the colony-forming capacity of individual cells in a semisolid methylcellulose medium (MethoCult H4434, StemCell Technologies, Cologne, Germany). The number of colonies was determined after 7-11 days.
CD34+ cells (G-CSF mobilized from stem cell donors) from healthy donors: 2×10^4 cells/ml; PBMCs from the healthy subjects: 4×10^5 cells/ml.
For this purpose, mononuclear cells (PBMC: mononuclear cells from peripheral blood) or CD34-positive stem cells (CD34+ cells) were isolated from the blood of four healthy controls and three AML or MPN patients and introduced into semisolid medium, to each of which 1 μM or 5 μM of MFS-2 or PFI-1 have been added. Individual cells in the CFU assay form cell colonies in culture after 12 days, unless the formation thereof is prevented by inhibitors.

[7] = system: BRD4; assay: Thermal shift assay (BromoMELT assay), BRD4; assay type: binding; conditions: 10 μM, duplicates, versus DMSO control
Method: as §2

## CN1Cc2cc(N=[S@@](C)(=O)c3ccccc3)ccc2NC1=O [MF2-S, (S)—N-(3-methyl-2-oxo-1,2,3,4-tetrahydroquinazolin-6-yl)-S-methyl-S-phenylsulfoximine]
[1]
  cell proliferation (cell count) of HEL: significantly reduced the cell proliferation
[2]
  subG1 phase (percentage of dead cells), HEL: significantly higher proportions
  synthesis phase (S phase) of cell cycle, HEL: more significantly inhibited by MF2-S than by PFI-1
[3]
  binding of BET family proteins (ΔTm, in words): equally good or better binding of proteins from the BET family compared to the comparative compound PFI-1
[4]
  viability of Molm-14 cells: significantly reduced the viability
[5]; 48 h, compared to PFI-1
  band for the PARP1 cleavage product, HEL: more marked in HEL cells than in the case of PFI-1 treatment
[5]; compared to MF2, MF2-R, PFI-1
  induction of apoptosis, HEL: induced apoptosis more strongly than the other compounds examined
[6]; 1 μM
  colony count, healthy CD34+ controls 3 and 4: reduced the colony count of the controls to a lesser degree
  colony count, healthy control 4: not significantly reduced
[6]; 5 μM
  colony count, healthy controls 1 (PBMC) and 2 (CD34+ cells): likewise reduced the amount of colonies
[7]
  binding / specificity for BRD4 (ΔTm, in words): more specific binding of BRD4
